Values after ≈ are worked out from the molar mass of the structure shown.
Tests used:
L929 = assay: Cytotoxicity against mouse L929 cells after 72 hrs by methylene blue staining; format: cell-based; details: L929, 72 h
Bacillus subtilis = assay: Antimicrobial activity against Bacillus subtilis ATCC 6633 by agar plate diffusion assay; format: functional
Candida albicans = assay: Antimicrobial activity against Candida albicans by agar plate diffusion assay; format: functional
Staphylococcus aureus = assay: Antimicrobial activity against Staphylococcus aureus 134/94 by agar plate diffusion assay; format: functional
Enterococcus faecium = assay: Antimicrobial activity against Enterococcus faecium 1528 by agar plate diffusion assay; format: functional
HeLa = assay: Cytotoxicity against human HeLa cells by methylene blue staining; format: functional, cell-based
K562 = assay: Cytotoxicity against human K562 cells after 72 hrs; format: functional, cell-based; details: K562, 72 h
Mycobacterium sp. = assay: Antimicrobial activity against Mycobacterium sp. SG 987 by agar plate diffusion assay; format: functional

## CC[C@@H]1[C@@H](C)O[C@@](OC)([C@@H](C)[C@H](O)[C@H](C)[C@H]2OC(=O)/C=C/C=C/[C@H](C)[C@@H]([C@@H](C)[C@@H](O)[C@H](C)[C@@]3(OC)C[C@@H](O[C@H]4C[C@H](O)[C@H](O)[C@H](C)O4)[C@H](CC)[C@@H](C)O3)OC(=O)/C=C/C=C/[C@@H]2C)C[C@H]1O[C@H]1C[C@H](O)[C@H](O)[C@H](C)O1
L929
  IC50: 2.4 µg/mL (≈ 2.28 µM)
Bacillus subtilis
  inhibition zone (IZ): 23 mm
Candida albicans
  inhibition zone (IZ): 0 mm
Staphylococcus aureus
  inhibition zone (IZ): 13 mm
Enterococcus faecium
  inhibition zone (IZ): 17 mm
HeLa
  IC50: 2.2 µg/mL (≈ 2.09 µM)
K562
  IC50: 1.3 µg/mL (≈ 1.23 µM)
Mycobacterium sp.
  inhibition zone (IZ): 15 mm

— ChEMBL document CHEMBL1151303, “New macrodiolide antibiotics, 11-O-monomethyl- and 11, 11'-O-dimethylelaiophylins, from Streptomyces sp. HKI-0113 and HKI-0114” (J Nat Prod, 1998)
